Measured values taken from patent US9211310B2, “Use of a Chinese medicine composition in preparing medicaments for treating secondary prevention of myocardial infarction” (TASLY PHARMACEUTICAL GROUP CO., LTD, priority 2010, dated 2015).

Test system: patients after acute myocardial infarction
Assay: Life quality, Seattle Angina Questionnaire (SAQ), same clinical trial
Type: in vivo, human
Settings: 3 months after treatment
Excerpt: 3508 patients who were in accordance with the diagnostic standards of AMI for 28 days to 2 years and differentiated as Qi deficiency and blood stagnation syndrome by TCM were studied. 0.5 g Chinese medicine composition prepared by the method of EXAMPLE 1 (Coded as QSYQ) was administrated half an hour after meal, 3 times per day.
There were 19 questions in the Seattle angina questionnaire (SAQ), including 5 parts: physical limitation (PL), anginal stability (AS), anginal frequency (AF), treatment satisfaction (TS) and disease perception (DP). After being given necessary explanation by doctors, the questions were answered independently by patients.
They included the overall survival time, angina pectoris score, TCM symptom score and life quality score, where angina pectoris score, TCM symptom score and life quality score were evaluated at randomization, in 1st, 3rd, 6th, 9th, 12th month after treatment and 18th month after follow-up.
All evaluation results of SAQ were described during the period of observation, and Wilcoxon rank sum test was used for inter-group comparison.
The evaluation results in the SAQ were depicted in different observations, and inter-group comparison was tested by Wilcoxon Rank-sum test.

For `CC(=O)Oc1ccccc1C(=O)O` [Control group, aspirine], the “SAQ 3rd question: <1 time per week, % of cases” value (FAS) was “(21.15%)”, the “SAQ 3rd question: <1 time per week, cases” value (FAS) was 368 and the “SAQ 3rd question: No onset, % of cases” value (FAS) was “(0.00%)”. For the same compound, the “SAQ 3rd question: No onset, cases” value (FAS) was 0, the “SAQ 3rd question: ≧3 times per week, % of cases” value (FAS) was “(42.13%)” and the “SAQ 3rd question: ≧3 times per week, cases” value (FAS) was 733. For the same compound, the “SAQ 3rd question: ≧4 times per day, % of cases” value (FAS) was “(0.92%)”, the “SAQ 3rd question: ≧4 times per day, cases” value (FAS) was 16 and the “SAQ Question 1-3: Mildly limited, number of patients” value (FAS) was 93. The “SAQ Question 1-3: Mildly limited, percent of patients” value (FAS) was “(5.33%)”, the “SAQ Question 1-3: Moderately limited, number of patients” value (FAS) was 23 and the “SAQ Question 1-3: Moderately limited, percent of patients” value (FAS) was “(1.32%)”. For the same compound, the “SAQ Question 1-3: Not limited, number of patients” value (FAS) was 1318, the “SAQ Question 1-3: Not limited, percent of patients” value (FAS) was “(75.57%)” and the “SAQ Question 1-3: Other reason, number of patients” value (FAS) was 9. For the same compound, the “SAQ Question 1-3: Other reason, percent of patients” value (FAS) was “(0.52%)”, the “SAQ Question 1-3: Severely limited, number of patients” value (FAS) was 5 and the “SAQ Question 1-3: Severely limited, percent of patients” value (FAS) was “(0.29%)”. The “SAQ Question 1-3: Slightly limited, number of patients” value (FAS) was 296, the “SAQ Question 1-3: Slightly limited, percent of patients” value (FAS) was “(16.97%)” and the “SAQ Question 1-4: Mildly limited, number of patients” value (FAS) was 325. For the same compound, the “SAQ Question 1-4: Mildly limited, percent of patients” value (FAS) was “(18.65%)”, the “SAQ Question 1-4: Moderately limited, number of patients” value (FAS) was 120 and the “SAQ Question 1-4: Moderately limited, percent of patients” value (FAS) was “(6.88%)”. The “SAQ Question 1-4: Not limited, number of patients” value (FAS) was 668, the “SAQ Question 1-4: Not limited, percent of patients” value (FAS) was “(38.32%)” and the “SAQ Question 1-4: Other limited, number of patients” value (FAS) was 12. The “SAQ Question 1-4: Other limited, percent of patients” value (FAS) was “(0.69%)”, the “SAQ Question 1-4: Severely limited, number of patients” value (FAS) was 29 and the “SAQ Question 1-4: Severely limited, percent of patients” value (FAS) was “(1.66%)”. For the same compound, the “SAQ Question 1-4: Slightly limited, number of patients” value (FAS) was 589, the “SAQ Question 1-4: Slightly limited, percent of patients” value (FAS) was “(33.79%)” and the “SAQ Question 1-5: Mildly limited, number of patients” value (FAS) was 311. The “SAQ Question 1-5: Mildly limited, percent of patients” value (FAS) was “(17.84%)”, the “SAQ Question 1-5: Moderately limited, number of patients” value (FAS) was 162 and the “SAQ Question 1-5: Moderately limited, percent of patients” value (FAS) was “(9.29%)”. For the same compound, the “SAQ Question 1-5: Not limited, number of patients” value (FAS) was 709, the “SAQ Question 1-5: Not limited, percent of patients” value (FAS) was “(40.68%)” and the “SAQ Question 1-5: Other reasons, number of patients” value (FAS) was 12. For the same compound, the “SAQ Question 1-5: Other reasons, percent of patients” value (FAS) was “(0.69%)”, the “SAQ Question 1-5: Severely limited, number of patients” value (FAS) was 21 and the “SAQ Question 1-5: Severely limited, percent of patients” value (FAS) was “(1.20%)”. For the same compound, the “SAQ Question 1-5: Slightly limited, number of patients” value (FAS) was 528, the “SAQ Question 1-5: Slightly limited, percent of patients” value (FAS) was “(30.29%)” and the “SAQ Question 1-9: Mildly limited, % of cases” value (FAS) was “(18.63%)”. The “SAQ Question 1-9: Mildly limited, cases” value (FAS) was 318, the “SAQ Question 1-9: Moderately limited, % of cases” value (FAS) was “(20.04%)” and the “SAQ Question 1-9: Moderately limited, cases” value (FAS) was 342. For the same compound, the “SAQ Question 1-9: Not limited, % of cases” value (FAS) was “(3.57%)”, the “SAQ Question 1-9: Not limited, cases” value (FAS) was 61 and the “SAQ Question 1-9: Other reaons, % of cases” value (FAS) was “(5.98%)”. For the same compound, the “SAQ Question 1-9: Other reaons, cases” value (FAS) was 102, the “SAQ Question 1-9: Severely limited, % of cases” value (FAS) was “(38.90%)” and the “SAQ Question 1-9: Severely limited, cases” value (FAS) was 664. The “SAQ Question 1-9: Slightly limited, % of cases” value (FAS) was “(12.89%)”, the “SAQ Question 1-9: Slightly limited, cases” value (FAS) was 220 and the “SAQ 2nd question: Clearly increased, % of cases” value (PP) was “(0.41%)”. The “SAQ 2nd question: Clearly increased, cases” value (PP) was 6, the “SAQ 2nd question: Clearly reduced, % of cases” value (PP) was “(22.01%)” and the “SAQ 2nd question: Clearly reduced, cases” value (PP) was 322. For the same compound, the “SAQ 2nd question: Same, % of cases” value (PP) was “(41.97%)”, the “SAQ 2nd question: Same, cases” value (PP) was 614 and the “SAQ 2nd question: Slightly increased, % of cases” value (PP) was “(3.42%)”. For the same compound, the “SAQ 2nd question: Slightly increased, cases” value (PP) was 50, the “SAQ 2nd question: Slightly reduced, % of cases” value (PP) was “(32.19%)” and the “SAQ 2nd question: Slightly reduced, cases” value (PP) was 471. For the same compound, the “SAQ 3rd question: 1-2 times per week, % of cases” value (PP) was “(32.19%)”, the “SAQ 3rd question: 1-2 times per week, cases” value (PP) was 471 and the “SAQ 3rd question: 1-3 times per day, % of cases” value (PP) was “(3.42%)”. The “SAQ 3rd question: 1-3 times per day, cases” value (PP) was 50, the “SAQ 3rd question: <1 time per week, % of cases” value (PP) was “(22.01%)” and the “SAQ 3rd question: <1 time per week, cases” value (PP) was 322. For the same compound, the “SAQ 3rd question: No onset, % of cases” value (PP) was “(0.00%)”, the “SAQ 3rd question: No onset, cases” value (PP) was 0 and the “SAQ 3rd question: ≧3 times per week, % of cases” value (PP) was “(41.97%)”. The “SAQ 3rd question: ≧3 times per week, cases” value (PP) was 614 and the “SAQ 3rd question: ≧4 times per day, % of cases” value (PP) was “(0.41%)”.
